Assay results as given in US20090197811A1, “ORALLY ADMINISTERED PEPTIDES TO IMPROVE OR PREVENT HEPATIC FIBROSIS” (University of Southern California, priority 2007, published 2009).
Entries after “also recorded” stand apart in the source; their conditions may differ. Non-standard residues stand in square brackets, D forms with d.

Key:
[1] = system: murine hepatic stellate cells (HSC); assay: Culture-induced activation of primary hepatic stellate cells (ASMA and oil red O staining); assay type: cell-based, mouse
Procedure: Murine hepatic stellate cells (HSC) were isolated by collagenase/pronase digestion and Stractan density gradient centrifugation^16. α-Smooth muscle actin (ASMA) staining: HSC were cultured on glass coverslips and fixed with 10% formaldehyde (EM Science, Gibbstown, N.J.) for 20 minutes at room temperature. Cells were incubated with a mouse monoclonal anti-ASMA (1:250 or 1:50, as indicated), followed by a rabbit anti-mouse IgG TRITC conjugate (1:50, Santa Cruz Scientific, Santa Cruz, Calif.). Slides were examined using a Nikon PCM-2000 confocal microscope with a Nikon Eclipse TE300 microscope with a plan Apo 60×/1.4 aperture oil immersion objective, 543-nm laser, and Simple PCI software from the C-Imaging series from Nikon/Compix Inc (Cranberry Township Pa.). Values were obtained by counting the number of ASMA positive cells in 15 randomly selected fields in triplicate. […]
To examine the mechanism of action of D-4F, murine hepatic stellate cells (HSC) were cultured on plastic for 7 days in the absence or presence of 10 μg/ml D-4F. Without D-4F, 87±2% of cells expressed α-smooth muscle actin (ASMA) after 7 days as assessed by confocal microscopy. In contrast, in the presence of D-4F 0% of HSC expressed ASMA after 7 days (see FIG. 7).

C57Bl/6J mice [2] = assay: Western diet model: fibrosis by Sirius red whole-section-scanning morphometric image analysis; assay type: in vivo, mouse
Procedure: (§1) Studies were performed in male C5713L/6J mice (Jackson Laboratories, Bar Harbor Me.). Six groups were studied (n=3-5, see FIG. 1) with 4 mice per group at the outset, except for group 2, which was started with n=5; 1 mouse died in group 1. Groups 1, 2, and 3 received the Western diet for 9.5 months; during the last 2.5 months of the 9.5 months, group 2 received SR141716 10 mg/kg/day i.g., and group 3 received D-4F, 125 μg/mouse/day, in the drinking water. Groups 4, 5, and 6 received the Western diet for 7 months followed by standard chow for 2.5 months; during the 2.5 months on standard chow, group 5 received SR141716 and group 6 received D-4F as described for groups 2 and 3, respectively. Additional control groups were studied: 6-month old C57Bl/6J mice as age-matched controls (n=5) and C57Bl/6J mice that received the Western diet for 6 months (n=6).
Sirius red staining was performed by the Morphology core of the USC-UCLA Research Center for Alcoholic Liver and Pancreatic Diseases. α-Smooth muscle actin.
Tissue sections stained with Sirius red were scanned by a third-generation Automated Cellular Imaging System (ACIS III), a highly automated microscope-based digital imaging system (Carl Zeiss MicroImaging AIS Inc., Aliso Viejo Calif.). The color of the Sirius red staining in the digitized tissue sections was determined and applied to a pre-existing algorithm that provides the area of a target color in μm^2. The outline of each digitized tissue section was manually traced using the computer's mouse. Areas of large portal tracts and central veins were also outlined manually. The total area (μm^2) of each tissue section and of the total area of large portal tracts and central veins were determined by the image analysis system. The area of fibrosis was calculated as [total area stained by Sirius red minus perivascular staining] as a percentage of the size of the tissue section. This method has the advantage of scanning the entire section, rather than measuring fibrosis in randomly chosen fields.

C57Bl/6J mice [3] = assay: Western diet model: α-smooth muscle actin staining of liver sections; assay type: in vivo, mouse; conditions: mice on the Western diet treated with D-4F (FIG. 4E)
Procedure: as §1
Sections of formalin-fixed, paraffin-embedded liver, 7 μm thick, were used for α-smooth muscle actin immunofluorescence staining. Slides were deparaffinized in xylene and serially rehydrated in graded ethanol (100-70%). Slides were treated with 0.1 M tris-HCl (pH 7.6)/0.05 Tween-20 for 5 min, incubated with 1 μg/ml proteinase K (Sigma, St Louis Mo.)) for 15 min at room temperature, and then rinsed in water for 10 min. […]

Ac-D-W-F-K-A-F-Y-D-K-V-A-E-K-F-K-E-A-F-NH2 (Ac-[dD][dW][dF][dK][dA][dF][dY][dD][dK][dV][dA][dE][dK][dF][dK][dE][dA][dF]-NH2; not fully specified; printed as Ac-D-W-F-K-A-F-Y-D-K-V-A-E-K-F-K-E-A-F-NH2) [D-4F]
cytoplasmic fat (lipid) droplets, oil red O staining ([1]; HSC cultured 7 days in the presence of D-4F vs without): maintain significantly more lipid droplets; also recorded: maintained cytoplasmic fat droplets
hepatic stellate cell activation in vitro ([1]; summary statement): prevented hepatic stellate cell activation
fibrosis (surface area positive for Sirius red staining) (C57Bl/6J mice [2]; group 3: Western diet 9.5 months, D-4F 125 μg/mouse/day in drinking water last 2.5 months, group 1 without drug 4.6±1.9%): 1.25%
fibrosis (surface area positive for Sirius red staining) (C57Bl/6J mice [2]; group 6: 7 months Western diet, then 2.5 months chow plus D-4F, group 4 chow alone 2.8±0.7%): 0.9±0.2%
progression of fibrosis after onset of steatohepatitis (C57Bl/6J mice [2]; summary statement): prevented progression of fibrosis
activated stellate cells in liver sections (α-smooth muscle actin staining) (C57Bl/6J mice [3]): decrease in activated stellate cells
